The target in the test is T1, S1P1 receptor (Homo sapiens, UniProt P21453).
T1 construct: expressed in transfected cells
T1 sequence (P21453 whole entry): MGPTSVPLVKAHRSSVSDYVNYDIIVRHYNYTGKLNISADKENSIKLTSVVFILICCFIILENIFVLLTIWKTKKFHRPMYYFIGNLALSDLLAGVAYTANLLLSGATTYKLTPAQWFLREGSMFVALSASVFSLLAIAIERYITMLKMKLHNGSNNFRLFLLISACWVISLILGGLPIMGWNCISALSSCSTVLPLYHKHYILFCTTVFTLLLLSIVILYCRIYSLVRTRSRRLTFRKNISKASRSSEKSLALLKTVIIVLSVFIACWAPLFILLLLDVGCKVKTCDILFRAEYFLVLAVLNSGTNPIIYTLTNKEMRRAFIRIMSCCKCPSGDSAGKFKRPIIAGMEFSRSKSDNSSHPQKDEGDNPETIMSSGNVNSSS
Kind of test: S1P1 (EDG-1) GTP[γ-35S] binding assay, membranes from CHO cells. The class given is biochemical. Conditions: CHO cell membranes. Here is the method:
A. In Vitro: GPCR Activation Assay Measuring GTP [γ-^35S] Binding to Membranes Prepared from CHO Cells Expressing Human S1P Receptors
S1P, (EDG-1) GTP [γ-^35S] binding assay: Homogenized membranes are prepared from CHO cell clones stably expressing a human EDG-1 N-terminal c-myc tag. Cells are grown in suspension in two 850 cm^2 roller bottles for three or fours days before harvesting. The cells are centrifuged down, washed once with cold PBS, and resuspended in ≦20 ml of Buffer A (20 mM HEPES, pH 7.4, […], EDTA-free complete protease inhibitor cocktail [1 tablet/25 ml]). The cell suspension is homogenized on ice, using a Polytron homogenizer at 30000 rpm at three intervals of 15 seconds each. The homogenate is first centrifuged at 2000 rpm on a tabletop low speed centrifuge for 10 minutes. The supernatant, after passing through a cell strainer, is then re-centrifuged at 50,000×g for 25 minutes at 4° C. The pellet is resuspended into buffer B (15% glycerol, 20 mM HEPES, pH 7.4, 0.1 mM EDTA, EDTA-free complete protease inhibitor cocktail [1 tablet/10 ml]). Protein concentration of the preparation is determined using the BCA Protein Assay kit (Pierce) using BSA as standard. The membranes are aliquoted and kept frozen at −80° C.
Solutions of test compounds ranging from 10 mM to 0.01 nM are prepared in DMSO. S1P is diluted in 4% BSA solution as positive controls. The desired amount of membrane preparation is diluted with ice-cold assay buffer (20 mM HEPES, pH 7.4, 100 mM NaCl, 10 mM MgCl2, 0.1% Fatty acid-free BSA, 5 μM GDP) and vortexed well. 2 μl or less of compound is distributed into each well of a round-bottom 96-well polystyrene assay plate, followed by addition of 100 μl of diluted membranes (3-10 μg/well) and kept on ice until the addition of hot GTPγS. [^35S]-GTPγS is diluted 1:1000 (v/v) with cold assay buffer and 100 μl is added into each well. The reaction is carried out at room temperature for 90 minutes before the membranes are harvested onto Perkin-Elmer Unifilter® GF/B-96 filter plate using a Packard Filtermate Harvester. […]
As for `CCOc1ccc(-c2nc(-c3ccc(CN)cc3)no2)cc1C(F)(F)F` [Example 21], the EC50 (commonly the midpoint of the concentration-response curve) is below 100 nM.

`CCc1cc(-c2noc(-c3ccc(OC(C)C)c(-c4ccccc4)c3)n2)ccc1S(N)(=O)=O` [Example 105] returned a concentration giving a half-maximal response (EC50) below 100 nM.

`CNCc1ccc(-c2noc(-c3ccc(-c4ccccc4)c(C(F)(F)F)c3)n2)cc1` [Example 44] gave an EC50 below 100 nM.
